According to patent US10961211B2, “Isotopically-stabilized tetronimide compounds” (Midwestern University, priority 2019, dated 2021):

Assay: LCMS analysis of deuterium/hydrogen exchange in solution
Assay type: physicochemical
Settings: NMR sample in dmso-d6, standing at room temperature
Protocol: A sample of rac-1 (440 mg, 1.07 mmol) was stirred in THF (10 mL) in the presence of K2CO3 (645 mg, 4.69 mmol; 4.4 eq.) and D2O (1.77 g, 88.5 mmol; 82.6 eq.) at room temperature. The reaction progress was monitored by LCMS and Mass analysis. After 9 days a sample was taken and concentrated under reduced pressure to give 96-100% pure (LCMS, UV 215 and 254 nm respectively) racemic 1-d3 (38.9 mg) according to ^1H-NMR analysis. […] Calcd. for C18H11D3F3NO5S M: 416.39

SMILES: NC1=C(OS(=O)(=O)Cc2ccccc2)C(=O)C(c2ccc(C(F)(F)F)cc2)O1 (racemic) [Compound 1-d3, 2-amino-4-oxo-5-(4-(trifluoromethyl)phenyl)-4,5-dihydrofuran-3-yl phenylmethanesulfonate]
- deuterium/hydrogen exchange (isotopic stability): deuterium loss took place in dmso-d6
